According to ChEMBL document CHEMBL3639182, “Nitrogen containing heteroaryl compounds” (2014):

Each molecule was assayed against cAMP and cAMP-inhibited cGMP 3',5'-cyclic phosphodiesterase 10A (Homo sapiens, UniProt Q9Y233) (assay: Scintillation Proximity Assay : PDE10 activity of the compounds of the present invention was determined using a Scintillation Proximity Assay (SPA)-based method similar to the one previously described (Fawcett, L. et al., Proc Natl Acad Sci USA (2000) 97(7):3702-3707). The human PDE10A full length assay was performed in 96-well micro titer plates. The reaction mixture of 50 μl contained 20 mM HEPES pH=7.5/10 mM MgCl2/0.05 mg/ml BSA (Sigma cat. # A-7906), 50 nM cGMP (Sigma, cat. # G6129) and 50 nM [3H]-cGMP (GE Healthcare, cat. # TRK392 S.A. 13.2 Ci/mmol), 3.75 ng/well PDE10A enzyme (Enzo Life Science, Lausen, Switzerland cat #SE-534) with or without a specific test compound.).
Chain of cAMP and cAMP-inhibited cGMP 3',5'-cyclic phosphodiesterase 10A (Q9Y233 whole entry): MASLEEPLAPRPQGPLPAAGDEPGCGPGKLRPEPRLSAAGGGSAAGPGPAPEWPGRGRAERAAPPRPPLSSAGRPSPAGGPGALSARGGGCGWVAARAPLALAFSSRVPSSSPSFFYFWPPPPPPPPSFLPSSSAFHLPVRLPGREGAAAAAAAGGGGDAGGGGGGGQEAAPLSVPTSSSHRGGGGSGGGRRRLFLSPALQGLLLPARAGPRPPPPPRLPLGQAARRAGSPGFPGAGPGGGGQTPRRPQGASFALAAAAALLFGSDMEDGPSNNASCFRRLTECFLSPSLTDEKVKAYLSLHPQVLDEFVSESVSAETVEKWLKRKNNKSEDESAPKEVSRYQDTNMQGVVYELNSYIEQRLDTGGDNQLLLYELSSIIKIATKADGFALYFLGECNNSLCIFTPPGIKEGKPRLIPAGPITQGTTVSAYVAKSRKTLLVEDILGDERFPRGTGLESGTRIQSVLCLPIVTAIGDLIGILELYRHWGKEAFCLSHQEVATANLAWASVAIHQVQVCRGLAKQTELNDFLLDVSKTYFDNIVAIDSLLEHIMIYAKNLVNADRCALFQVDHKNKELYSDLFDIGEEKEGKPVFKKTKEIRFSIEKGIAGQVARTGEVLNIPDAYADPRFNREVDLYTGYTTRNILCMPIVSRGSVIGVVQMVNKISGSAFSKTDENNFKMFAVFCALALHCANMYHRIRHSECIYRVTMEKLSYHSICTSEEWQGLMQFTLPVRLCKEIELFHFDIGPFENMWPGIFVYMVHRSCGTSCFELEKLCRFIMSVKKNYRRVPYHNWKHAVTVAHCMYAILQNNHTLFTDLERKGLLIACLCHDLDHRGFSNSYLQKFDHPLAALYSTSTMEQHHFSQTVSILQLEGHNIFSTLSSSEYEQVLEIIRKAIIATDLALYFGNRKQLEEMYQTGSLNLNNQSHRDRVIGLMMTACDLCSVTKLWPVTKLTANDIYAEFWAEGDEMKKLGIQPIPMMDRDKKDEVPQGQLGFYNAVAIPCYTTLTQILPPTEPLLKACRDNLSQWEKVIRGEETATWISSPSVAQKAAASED
With `CN(CC(F)(F)F)C(=O)c1ncccc1NC(=O)c1nc(C2CC2)cnc1Nc1cncnc1` the IC50 was 8.1 nM. `CNC(=O)c1c(NC(=O)c2nc(C3CC3)cnc2Nc2cncnc2)cnn1CC(F)(F)F` was tested, and the IC50 was 27 nM. In the case of `Cn1ncc(NC(=O)c2nc(C3CC3)cnc2Nc2cncnc2)c1C(=O)NC1COC1`, the IC50 is reported as 6.6 nM. With `COCc1ccc(NC(=O)c2nc(C3CC3)cnc2Nc2cncnc2)c(C(=O)NCC(C)(C)O)n1` the IC50 was 0.5 nM. In the case of `CN(C(=O)c1ncccc1NC(=O)c1nc(C2CC2)cnc1Nc1cncnc1)C1CC1`, the IC50 is reported as 26.8 nM. Molecule `CNC(=O)c1nc(C)ncc1NC(=O)c1nc(C2CC2)cnc1Nc1cncnc1` has an IC50 of 19.3 nM. Molecule `COCCOc1ccc(NC(=O)c2nc(C3CC3)cnc2Nc2cncnc2)c(C(=O)NCC(C)(C)O)c1` has an IC50 of 0.7 nM. `CNC(=O)c1ccc(F)c(F)c1NC(=O)c1nc(C2CC2)cnc1Nc1cncnc1` showed an IC50 of 1.8 nM. `CC(C)(O)CNC(=O)c1cc(C#N)ccc1NC(=O)c1nc(C2CC2)cnc1Nc1cncnc1` gave an IC50 of 0.7 nM. For `CC1CCCCN1C(=O)c1ncccc1NC(=O)c1nc(C2CC2)cnc1Nc1cncnc1` (centres undefined), the IC50 was 15.9 nM. `CN(C(=O)c1ncccc1NC(=O)c1nc(C2CC2)cnc1Nc1cncnc1)C1CCOCC1` was tested, and the IC50 was 425 nM. Molecule `CNC(=O)c1cc(NC(C)=O)ccc1NC(=O)c1nc(C2CC2)cnc1Nc1cncnc1` has an IC50 of 0.4 nM. Molecule `CN(C)C(=O)c1c(NC(=O)c2nc(C3CC3)cnc2Nc2cncnc2)cnn1C` has an IC50 of 32.2 nM. `CC(CO)CNC(=O)c1c(NC(=O)c2nc(C3CC3)cnc2Nc2cncnc2)cnn1C` (centres undefined) gave an IC50 of 1.5 nM.
